The record followed here is patent publication US12721835B2, “Anticoccidial composition comprising violacein, and use thereof” (CJ CHEILJEDANG CORPORATION, priority 2020, dated 2026).

Assay [1] has as its system Eimeria tenella, Eimeria acervulina, and Eimeria maxima. Kind of assay: In vivo anticoccidial activity upon complex inoculation of 3 kinds of protozoa (broilers, formulated feed). Set-up: Oocyst index: scale not given here. Particulars: 3 kinds infection; for Lesion index: lesion score x 10; for ACI: out of 200 points; for Lesion score: sum of duodenum, jejunum and appendix; for RWG(%): vs non-infected negative control. On the procedure:
An in vivo anticoccidial efficacy evaluation test was performed in an animal experiment facility in Chungcheongnam-do, South Korea. One-day-old male Ross broilers were individually weighed and randomly divided into groups to use in an experiment. Matters and conditions for experimental design were described in Table 5.
A breeding farm was managed according to the Korean poultry breeding management guidelines. Cages and the breeding farm were cleaned and disinfected before starting the test. The temperature of […] and the humidity of 40 to 50% of the breeding farm were maintained, and it was continuously monitored.
The feed was mixed in Neobase, and each material (salinomycin (Cheilbio Cheilsalino-60 product), violacein (CJ Cheiljedang)) was added to the feed, respectively, at a concentration described in Table 6 below to be self-mixed. Antibiotics and supplements were not used in general feed and mixed feed, and no anticoccidial agent other than each material was added. Broilers were fed ad libitum throughout the experiment period. After putting 8 1-day-age broilers in cages randomly placed for each of the control group or test group and breeding, general feed (Al-choi product) was fed for 7 days, and then the mixed feed prepared above was ingested by dividing by control group or test group.
The feed formulation administered to the control group (negative control group or positive control group) and test group and whether coccidiosis was induced by three kinds of protozoa were described in Table 6 below.
Coccidiosis induction was performed by oral inoculation (challenge inoculation) in an oral tube type of 10,000, 50,000, 50,000 oocysts (eggs) with over 90% mature (sporulation) Eimeria tenella, Eimeria acervulina, and Eimeria maxima per one individual to 14-day-old broilers.
The anticoccidial efficacy by test group designed in Example 2-2 above was shown as an anticoccidial index (ACI), and the anticoccidial index was calculated by the similar method to Example 1-3 above. However, in the present example, the protozoa of Eimeria tenella, Eimeria acervulina, and Eimeria maxima were challenge inoculated, so the lesion score was calculated by summing the scores for each of the duodenum, jejunum and appendix, respectively, differently from Example 1-3.

A further assay relates to Eimeria acervulina. Kind of assay: Protozoan (sporozoite) direct killing effect. Particulars: tested 1 to 500 ppm, vs PBS control. It counts as cell-based. How it is done:
(§1) In the present example, protozoan (sporozoite) direct killing ability evaluation was conducted against 3 representative Eimeria kinds known to be infected in most farms (E. tenella, E. acervulina, E. maxima).
(§2) A certain amount of oocysts of each coccidial protozoan was put in a tube containing glass beads and pulverized, and then to remove the crushed oocyst cell wall and other debris, internal sporocysts were purified using the percoll density gradient, and washed with PBS solution. A reagent comprising sodium taurocholic acid (Sigma aldrich, USA) and trypsin (Gibco, USA), respectively, was treated to sporocysts of Eimeria tenella, Eimeria acervulina and Eimeria maxima for excystation of the internal sporozoites, and they were incubated, and then they were washed with PBS solution once and the protozoa were obtained.
(§3) After reacting the violacein and anticoccidial agents, salinomycin, diclazuril and gallic acid (hereinafter, material) with 3 kinds of Eimeria protozoa at various concentrations of 1 to 500 ppm, respectively, only alive protozoa (sporozoites) were counted through microscopic observation. […]

For another assay, the system named is Eimeria maxima. The assay is described as follows: Protozoan (sporozoite) direct killing effect. Particulars: tested 1 to 500 ppm, vs PBS control. It counts as cell-based. How it is done:
as §1, §2, §3

In assay [2] the test system is Eimeria tenella. The assay is described as follows: Protozoan (sporozoite) direct killing effect. It counts as cell-based. To be noted: tested 1 to 500 ppm, vs PBS control. How it is done:
as §1, §2, §3

Assay [3] concerns Eimeria tenella. Kind of assay: Cell invasion inhibition of protozoa in MDBK cells (ITS-1 PCR). To be noted: read-out: Cell invasion inhibitory effect of protozoa (%). It counts as cell-based. On the procedure: In the present example, using MDBK cell line which is a representative animal cell known to cause Eimeria infection and propagation, the inhibition ability of intracellular protozoan invasion and intracellular protozoal propagation of the violacein was investigated.
100,000 MDBK cells (purchased from ATCC) were aliquoted in a 24-well plate, and then incubated at a temperature of 37° C. for 12 hours. The protozoan of Eimeria tenella was obtained similar to the method of Example 3 above. 200,000 protozoa per one well were added to wells in which cells were aliquoted, and each material (violacein and anticoccidial agents, salinomycin, diclazuril and gallic acid) was treated to the cells by concentration, and cultured at a temperature of 41° C. for 24 hours. A negative control group is a MDBK cell infected by protozoa of Eimeria tenella, and a positive control group means a group in which salinomycin, diclazuril or gallic acid solution was incubated with the Eimeria tenella protozoan. […] After removing the cells and protozoa inside the cells through pipetting, DNA was extracted from the cells, and PCR was performed using E. tenella ITS-1 (Internal transcribed spacer-1) gene-specific primers. The sequences of the used primers were described in Table 9 below.
Ct values before/after washing for each material were compared and corrected with the ΔCt value of the negative control group to calculate the cell invasion inhibition rate (%) of the protozoa through treatment of each material, and the result was shown in FIG. 3 and Table 10 below.

SMILES strings stand for the structures.

For the molecule `CC[C@@H](C(=O)[C@@H](C)[C@@H](O)[C@H](C)[C@@H]1O[C@@H]([C@@H](CC)C(=O)O)CC[C@@H]1C)[C@H]1O[C@]2(C=C[C@@H](O)[C@]3(CC[C@@](C)([C@H]4CC[C@](O)(CC)[C@H](C)O4)O3)O2)[C@H](C)C[C@@H]1C` [Salinomycin, salinomycin, reference compound], in assay [1] (feed 60 ppm), the “ADG(g/d) after challenge inoculation” value amounted to 46.6 g/day, the Oocyst excretion amount/g turned out to be 540000 g⁻¹, the Oocyst index stood at 20.0 and the “Survival rate after challenge inoculation (%)” value (“Survival rate … (%)” below) is 100%. For the same molecule, in assay [1] (feed 60 ppm), the Lesion index is reported as 55, the ACI came out at 130, the Lesion score stood at 5.5 and the “RWG(%)” value was found to be 105.1%. In addition, in the assay with Eimeria acervulina, the “Minimum concentration for killing 50% protozoa (sporozoites) (ppm)” value was 250 ppm. Also, in the assay with Eimeria maxima, the “Minimum concentration for killing 50% protozoa (sporozoites) (ppm)” value is 500 ppm. In the assay with Eimeria tenella [2], the “Minimum concentration for killing 50% protozoa (sporozoites) (ppm)” value amounted to 500 ppm. In the assay on Eimeria tenella [3] (MDBK, 24 h), the inhibition at 5 ppm turned out to be 50.1% and the inhibition at 10 ppm was 56.4%.
On to `O=C1N=c2ccccc2=C1c1cc(-c2c[nH]c3ccc(O)cc23)[nH]c1O` [Violacein, 3-(2-(5-Hydroxyindol-3-yl)-5-oxo-2-pyrrolin-4-ylidene)-2-indolinone], for which, in assay [1] (feed 10 ppm), the “ADG(g/d) after challenge inoculation” value amounted to 40.4 g/day, the Oocyst excretion amount/g was 680000 g⁻¹, the Oocyst index is listed as 31.4 and the “Survival rate … (%)” value turned out to be 100%. In addition, in assay [1] (feed 10 ppm), the Lesion index is recorded as 51, the ACI is 109, the Lesion score is 5.1 and the “RWG(%)” value amounted to 91.1%. In assay [1] (feed 15 ppm), the “ADG(g/d) after challenge inoculation” value amounted to 45.2 g/day, the Oocyst excretion amount/g amounted to 380000 g⁻¹, the Oocyst index stood at 15.7 and the “Survival rate … (%)” value amounted to 100%. For the same molecule, in assay [1] (feed 15 ppm), the Lesion index stood at 31, the ACI is listed as 155, the Lesion score is recorded as 3.1 and the “RWG(%)” value came to 102.0%. Besides, in assay [1] (feed 20 ppm), the “ADG(g/d) after challenge inoculation” value stood at 42.1 g/day, the Oocyst excretion amount/g is 1.56e+06 g⁻¹, the Oocyst index worked out at 22.9 and the “Survival rate … (%)” value came out at 100%. Moreover, in assay [1] (feed 20 ppm), the Lesion index is recorded as 40, the ACI came to 132, the Lesion score is on record as 4.0 and the “RWG(%)” value was 95%. In addition, the “Minimum concentration for killing 50% protozoa (sporozoites) (ppm)” value in the assay on Eimeria acervulina came out at 3.9 ppm. For the same molecule, in the assay with Eimeria maxima, the “Minimum concentration for killing 50% protozoa (sporozoites) (ppm)” value was found to be 5 ppm. Further, the “Minimum concentration for killing 50% protozoa (sporozoites) (ppm)” value with Eimeria tenella [2] worked out at 0.63 ppm. In addition, the inhibition at 0.5 ppm with Eimeria tenella [3] (MDBK cells, 0.5 ppm, 41° C. 24 hours) came out at 59.5%. For the same molecule, the inhibition at 1 ppm in the assay with Eimeria tenella [3] (MDBK cells, 1 ppm, 41° C. 24 hours) is 78.6%.
